Here are results for 29 compounds from US20240368132A1, “ROCK2 INHIBITORS AND USES THEREOF” (President and Fellows of Harvard College, priority 2021, published 2024).

Assay [1] has as its target T1, ROCK1 (Homo sapiens, UniProt Q13464).
T1 construct: purchased Reaction Biology
The assay can be described thus: ROCK1 kinase assay (Reaction Biology Hot Spot kinase assay). It counts as biochemical. The conditions noted are these: purified kinase, 33P-ATP (10 μM), P81 filter-binding method. As to the method:
(§1) ROCK2 and ROCK] kinase assays
(§2) ROCK2 and ROCK1 enzyme potencies were determined by Reaction Biology (www.reactionbiology.com) using their Hot Spot kinase Assay. The base reaction buffer for the assay was 20 mM Hepes (pH 7.5), 10 mM MgCl2, 1 mM EGTA, 0.01% Brij35, 0.02 mg/mL BSA, 0.1 mM Na3VO4, and 2 mM DTT with a 1% DMSO concentration. Required cofactors were added individually to each kinase reaction. The substrate was freshly prepared in the reaction buffer described above, and then cofactors were delivered. The purified kinase was added to the substrate solution and then gently mixed. Compounds were added from 100% DMSO into the kinase reaction mixture by Acoustic technology (Echo550; nanoliter range) and then incubated for 20 min at room temperature. ^33P-ATP (10 μM) was delivered to initiate the reaction, and then the mixture was incubated again for two hours at room temperature. […] Nat. Biotechnol. 2011 Oct. 30; 29(11):1039-45. doi: 10.1038/nbt.2017.
(§3) The compounds were categorized based on IC50 value as “+”, “++”, “+++”, and “++++”. The category “+” refers to compounds with ROCK IC50 value of >10 μM. The category “++” refers to compounds with a ROCK IC50 value of 10 to 3 μM. The category “+++” refers to compounds with ROCK IC50 value of 3 to 0.3 μM. The category “++++” refers to compounds with a ROCK IC50 value of <0.3 μM. “ND” refers to “not determined.” The compound of an “Example Number” is the final product of an Example entitled the Example Number.

The target of assay [2] is T2, ROCK2 (Homo sapiens, UniProt O75116).
T2 construct: purchased Reaction Biology
T2 sequence (O75116 whole entry): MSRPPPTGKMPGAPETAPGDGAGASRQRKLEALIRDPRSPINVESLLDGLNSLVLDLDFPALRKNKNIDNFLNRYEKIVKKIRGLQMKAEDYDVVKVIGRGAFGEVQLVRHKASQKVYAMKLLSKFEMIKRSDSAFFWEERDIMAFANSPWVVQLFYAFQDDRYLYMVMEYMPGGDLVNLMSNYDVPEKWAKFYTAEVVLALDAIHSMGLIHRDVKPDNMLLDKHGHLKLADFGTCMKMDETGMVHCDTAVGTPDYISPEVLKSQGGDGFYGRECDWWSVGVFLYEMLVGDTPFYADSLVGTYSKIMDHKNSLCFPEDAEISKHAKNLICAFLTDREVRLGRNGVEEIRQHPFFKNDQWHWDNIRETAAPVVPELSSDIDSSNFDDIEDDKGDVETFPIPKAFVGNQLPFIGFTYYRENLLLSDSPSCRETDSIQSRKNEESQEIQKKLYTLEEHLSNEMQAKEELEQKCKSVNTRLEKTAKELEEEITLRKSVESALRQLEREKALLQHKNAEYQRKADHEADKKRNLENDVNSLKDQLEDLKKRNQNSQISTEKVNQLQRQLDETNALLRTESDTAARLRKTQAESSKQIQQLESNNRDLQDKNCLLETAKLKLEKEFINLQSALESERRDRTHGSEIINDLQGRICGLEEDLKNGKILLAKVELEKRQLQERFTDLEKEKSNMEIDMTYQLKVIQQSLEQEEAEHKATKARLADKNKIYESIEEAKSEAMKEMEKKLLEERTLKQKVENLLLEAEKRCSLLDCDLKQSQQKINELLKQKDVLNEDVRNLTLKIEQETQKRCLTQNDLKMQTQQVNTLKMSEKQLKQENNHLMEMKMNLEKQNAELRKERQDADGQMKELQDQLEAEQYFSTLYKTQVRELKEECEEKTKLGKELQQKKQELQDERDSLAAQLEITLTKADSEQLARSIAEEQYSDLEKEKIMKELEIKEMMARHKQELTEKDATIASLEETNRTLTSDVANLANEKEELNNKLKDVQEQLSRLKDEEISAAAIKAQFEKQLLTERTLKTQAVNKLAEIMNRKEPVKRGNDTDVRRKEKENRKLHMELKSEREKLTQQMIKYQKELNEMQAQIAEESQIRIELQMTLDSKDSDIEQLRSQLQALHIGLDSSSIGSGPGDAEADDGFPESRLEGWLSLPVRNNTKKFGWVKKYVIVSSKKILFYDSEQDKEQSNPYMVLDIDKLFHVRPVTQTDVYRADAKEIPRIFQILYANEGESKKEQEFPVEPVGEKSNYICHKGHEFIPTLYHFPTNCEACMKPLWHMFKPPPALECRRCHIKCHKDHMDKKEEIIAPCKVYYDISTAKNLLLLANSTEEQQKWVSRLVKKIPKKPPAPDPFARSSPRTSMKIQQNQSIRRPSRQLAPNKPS
The assay can be described thus: ROCK2 kinase assay (Reaction Biology Hot Spot kinase assay). Format: biochemical. Conditions: purified kinase, 33P-ATP (10 μM), P81 filter-binding method. As to the method:
as §1, §2, §3

A value given as a limit tells only on which side of the number the result lay.

T1 sequence (Q13464 whole entry): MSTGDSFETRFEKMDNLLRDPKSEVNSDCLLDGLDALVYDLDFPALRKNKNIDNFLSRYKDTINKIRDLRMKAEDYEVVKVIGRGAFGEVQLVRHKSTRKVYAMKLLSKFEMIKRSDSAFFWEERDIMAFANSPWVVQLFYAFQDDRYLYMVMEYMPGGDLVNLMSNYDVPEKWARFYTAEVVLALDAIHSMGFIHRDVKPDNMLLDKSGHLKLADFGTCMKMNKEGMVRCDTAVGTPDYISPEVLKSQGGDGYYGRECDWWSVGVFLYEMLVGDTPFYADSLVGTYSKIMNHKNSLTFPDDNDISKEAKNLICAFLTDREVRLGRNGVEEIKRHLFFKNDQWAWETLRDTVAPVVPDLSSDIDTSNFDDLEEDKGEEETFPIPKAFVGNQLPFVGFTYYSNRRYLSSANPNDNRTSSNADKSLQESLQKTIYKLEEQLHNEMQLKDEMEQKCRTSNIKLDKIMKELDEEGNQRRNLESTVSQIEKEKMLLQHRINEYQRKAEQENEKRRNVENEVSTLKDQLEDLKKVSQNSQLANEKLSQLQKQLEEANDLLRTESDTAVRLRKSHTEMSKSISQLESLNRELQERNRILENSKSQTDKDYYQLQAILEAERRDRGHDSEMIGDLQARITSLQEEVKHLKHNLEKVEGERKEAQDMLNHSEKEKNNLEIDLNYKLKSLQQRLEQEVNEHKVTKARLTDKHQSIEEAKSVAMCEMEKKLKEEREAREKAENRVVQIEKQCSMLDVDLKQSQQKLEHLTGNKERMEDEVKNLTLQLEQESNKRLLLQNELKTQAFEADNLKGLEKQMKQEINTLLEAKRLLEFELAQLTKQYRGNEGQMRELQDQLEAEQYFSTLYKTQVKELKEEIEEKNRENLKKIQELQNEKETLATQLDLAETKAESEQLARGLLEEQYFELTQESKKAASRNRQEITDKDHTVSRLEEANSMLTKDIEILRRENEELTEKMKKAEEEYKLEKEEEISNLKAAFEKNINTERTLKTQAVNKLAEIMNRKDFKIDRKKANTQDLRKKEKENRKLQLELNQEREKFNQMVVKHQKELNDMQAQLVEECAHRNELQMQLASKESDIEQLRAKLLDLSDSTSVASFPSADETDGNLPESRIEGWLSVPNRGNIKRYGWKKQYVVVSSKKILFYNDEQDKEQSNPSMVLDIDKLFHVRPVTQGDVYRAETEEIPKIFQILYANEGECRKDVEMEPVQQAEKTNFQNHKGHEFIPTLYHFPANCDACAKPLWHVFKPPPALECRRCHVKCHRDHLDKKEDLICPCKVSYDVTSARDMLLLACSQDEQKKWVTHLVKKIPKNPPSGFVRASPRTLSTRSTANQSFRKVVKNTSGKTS

In general, IC50 refers to the concentration that inhibits the measured activity by half. A lower IC50 goes with inhibition by little substance. On to `Cn1cc(C(=O)Nc2cccc(-c3nnc(Nc4ccc5[nH]ncc5c4Cl)o3)c2)cn1` [Example 55, N-(3-(5-((4-chloro-1H-indazol-5-yl)amino)-1,3,4-oxadiazol-2-yl)phenyl)-1-methyl-1H-pyrazole-4-carboxamide], for which the IC50 in assay [1] and in assay [2] was below 300 nM throughout.
In the case of `Cn1cc(C(=O)Nc2cccc(-n3nc(Nc4ccc5[nH]ncc5c4Cl)c4ncccc43)c2)cn1` [Example 56, N-(3-(3-((4-chloro-1H-indazol-5-yl)amino)-1H-pyrazolo[4,3-b]pyridin-1-yl)phenyl)-1-methyl-1H-pyrazole-4-carboxamide], the IC50 in assay [1] was 300 to 3000 nM; in assay [2], below 300 nM.
Take `Cn1cc(C(=O)Nc2cc(-n3nc(Nc4ccc5[nH]ncc5c4Cl)c4ccccc43)ccc2F)cn1` [Example 57, N-(5-(3-((4-chloro-1H-indazol-5-yl)amino)-1H-indazol-1-yl)-2-fluorophenyl)-1-methyl-1H-pyrazole-4-carboxamide]: the IC50 in assay [1] and in assay [2] was below 300 nM in each case.
`Cn1cc(C(=O)Nc2cccc(-n3nc(Nc4ccc5[nH]ncc5c4Cl)c4cnccc43)c2)cn1` [Example 58]: the IC50 in assay [1] and in assay [2] was below 300 nM each time.
Take `Cn1cc(C(=O)Nc2cccc(-n3nc(Nc4ccc5[nH]ncc5c4Cl)c4ccncc43)c2)cn1` [Example 59]: the IC50 is above 10000 nM in assay [1] and below 300 nM in assay [2].
Consider `Cn1cc(C(=O)Nc2cccc(-n3nc(Nc4ccc5[nH]ncc5c4Cl)c4cccnc43)c2)cn1` [Example 60], for which the IC50 in assay [1] and in assay [2] was below 300 nM in each case.
With `O=C(Nc1cccc(-c2noc(Nc3ccc4[nH]ncc4c3Cl)n2)c1)c1ccccc1F` [Example 61, N-(3-(5-((4-chloro-1H-indazol-5-yl)amino)-1,2,4-oxadiazol-3-yl)phenyl)-2-fluorobenzamide], the IC50 in assay [1] is below 300 nM; in assay [2], above 10000 nM.
`Cn1cc(C(=O)Nc2cccc(-c3noc(Nc4ccc5[nH]ncc5c4Cl)n3)c2)cn1` [Example 62, N-(3-(5-((4-chloro-1H-indazol-5-yl)amino)-1,2,4-oxadiazol-3-yl)phenyl)-1-methyl-1H-pyrazole-4-carboxamide]: the IC50 in assay [1] and in assay [2] was below 300 nM in each case.
With `Cn1cc(C(=O)Nc2cccc(-c3nc(Nc4ccc5[nH]ncc5c4Cl)no3)c2)cn1` [Example 63, N-(3-(3-((4-chloro-1H-indazol-5-yl)amino)-1,2,4-oxadiazol-5-yl)phenyl)-1-methyl-1H-pyrazole-4-carboxamide], the IC50 in assay [1] and in assay [2] was below 300 nM in each case.
`O=C(Nc1cccc(-c2nc(Nc3ccc4[nH]ncc4c3Cl)no2)c1)c1ccccc1F` [Example 64]: the IC50 in assay [1] is 300 to 3000 nM; in assay [2], below 300 nM.
As to `Cn1cc(-c2nc3cc(-n4ccc(Nc5ccc6[nH]ncc6c5Cl)n4)ccc3o2)cn1` [Example 65, 4-chloro-N-(1-(2-(1-methyl-1H-pyrazol-4-yl)benzo[d]oxazol-5-yl)-1H-pyrazol-3-yl)-1H-indazol-5-amine], the concentration for half-maximal inhibition (IC50) in assay [1] was 300 to 3000 nM; in assay [2], below 300 nM.
In the same order, the values of `Cn1cc(-c2nc3cc(-n4nc(Nc5ccc6[nH]ncc6c5Cl)c5ccccc54)ccc3o2)cn1` [Example 66] are above 10000 nM and above 10000 nM.
In the same order, the values of `Cn1cc(C(=O)Nc2cc(-c3nnc(Nc4ccc5[nH]ncc5c4Cl)o3)cn(C)c2=O)cn1` [Example 67, N-[5-[5-[(4-chloro-1H-indazol-5-yl)amino]-1,3,4-oxadiazol-2-yl]-1-methyl-2-oxo-3-pyridyl]-1-methyl-pyrazole-4-carboxamide] are below 300 nM and below 300 nM.
For `Cn1cc(-n2nc(Nc3ccc4[nH]ncc4c3Cl)c3ccccc32)cc(NC(=O)c2ccccc2F)c1=O` [Example 68, N-(5-(3-((4-chloro-1H-indazol-5-yl)amino)-1H-indazol-1-yl)-1-methyl-2-oxo-1,2-dihydropyridin-3-yl)-2-fluorobenzamide], the IC50 in assay [1] and in assay [2] was below 300 nM in each case.
On to `Cn1cc(C(=O)Nc2cc(-n3nc(Nc4ccc5[nH]ncc5c4Cl)c4ccccc43)cn(C)c2=O)cn1` [Example 69], for which the half-inhibitory concentration (IC50) in assay [1] and in assay [2] was above 10000 nM throughout.
Take `COc1cc(-n2nc(C(F)(F)F)cc2Nc2ccc3[nH]ncc3c2Cl)ccc1OCC(=O)NC(C)C` [Example 70, 2-(4-(5-((4-chloro-1H-indazol-5-yl)amino)-3-(trifluoromethyl)-1H-pyrazol-1-yl)-2-methoxyphenoxy)—N-isopropylacetamide]: the IC50 in assay [1] and in assay [2] was 300 to 3000 nM throughout.
With `COc1cc(-c2nnc(Nc3ccc4[nH]ncc4c3Cl)o2)ccc1OCC(=O)NC(C)C` [Example 72, 2-[4-[5-[(4-chloro-1H-indazol-5-yl)amino]-1,3,4-oxadiazol-2-yl]-2-methoxy-phenoxy]-N-isopropyl-acetamide], the results for the IC50 in assay [1] and in assay [2] were 300 to 3000 nM and below 300 nM, respectively.
For `COc1cc(-c2nc(Nc3ccc4[nH]ncc4c3Cl)no2)ccc1OCC(=O)NC(C)C` [Example 73, 2-[4-[3-[(4-chloro-1H-indazol-5-yl)amino]-1,2,4-oxadiazol-5-yl]-2-methoxy-phenoxy]-N-isopropyl-acetamide], the IC50 in assay [1] is 300 to 3000 nM; in assay [2] it was below 300 nM.
Regarding `Cn1cc(C(=O)Nc2cccc(-c3cc(Nc4ccc5[nH]ncc5c4Cl)no3)c2)cn1` [Example 74, N-(3-(3-((4-chloro-1H-indazol-5-yl)amino)isoxazol-5-yl)phenyl)-1-methyl-1H-pyrazole-4-carboxamide], the IC50 in assay [1] and in assay [2] was below 300 nM throughout.
Consider `CC(C)NC(=O)COc1ccc(-n2ccc(Nc3ccc4[nH]ncc4c3Cl)n2)cc1F` [Example 75, 2-(4-(3-((4-chloro-1H-indazol-5-yl)amino)-1H-pyrazol-1-yl)-2-fluorophenoxy)—N-isopropylacetamide], for which the IC50 in assay [1] was 300 to 3000 nM; in assay [2], below 300 nM.
For `COC(=O)CN1CCOc2cc(-n3cc(C)c(Nc4ccc5[nH]ncc5c4Cl)n3)ccc21` [Example 76, methyl 2-[7-[3-[(4-chloro-1H-indazol-5-yl)amino]-4-methyl-pyrazol-1-yl]-2,3-dihydro-1,4-benzoxazin-4-yl]acetate], the IC50 in assay [1] and in assay [2] was above 10000 nM throughout.
As to `Cc1cn(-c2ccc3c(c2)OCCN3CC(=O)NC(C)C)nc1Nc1ccc2[nH]ncc2c1Cl` [Example 77, 2-[7-[3-[(4-chloro-1H-indazol-5-yl)amino]-4-methyl-pyrazol-1-yl]-2,3-dihydro-1,4-benzoxazin-4-yl]-N-isopropyl-acetamide], the half-maximal inhibitory concentration (IC50) in assay [1] lay in the range of 3000 to 10000 nM; in assay [2], 300 to 3000 nM.
Regarding `Cc1cn(-c2ccc3c(c2)CCN(C(=O)NC(C)C)C3)nc1Nc1ccc2[nH]ncc2c1Cl` [Example 78, 6-(3-((4-chloro-1H-indazol-5-yl)amino)-4-methyl-1H-pyrazol-1-yl)-N-isopropyl-3,4-dihydroisoquinoline-2(1H)-carboxamide], the IC50 was 300 to 3000 nM in assay [1] and below 300 nM in assay [2].
In the same order, the values of `Cc1cn(-c2ccc3c(c2)CCN(C(=O)C2CC2)C3)nc1Nc1ccc2[nH]ncc2c1Cl` [Example 79, [6-[3-[(4-chloro-1H-indazol-5-yl)amino]-4-methyl-pyrazol-1-yl]-3,4-dihydro-1H-isoquinolin-2-yl]-cyclopropyl-methanone] are 3000 to 10000 nM and below 300 nM.
With `Cc1cn(-c2ccc3c(c2)CCN(C(=O)C(C)C)C3)nc1Nc1ccc2[nH]ncc2c1Cl` [Example 80, 1-[6-[3-[(4-chloro-1H-indazol-5-yl)amino]-4-methyl-pyrazol-1-yl]-3,4-dihydro-1H-isoquinolin-2-yl]-2-methyl-propan-1-one], the IC50 in assay [1] was above 10000 nM. Besides, in assay [2], the “ROCK2 IC50” value was “+ +”.
With `Cc1cn(-c2ccc3c(c2)CCN(C(=O)C2CCCC2)C3)nc1Nc1ccc2[nH]ncc2c1Cl` [Example 81], the concentration for half-maximal inhibition (IC50) in assay [1] and in assay [2] was above 10000 nM each time.
`Cc1cn(-c2ccc3c(c2)CCN(S(=O)(=O)C2CC2)C3)nc1Nc1ccc2[nH]ncc2c1Cl` [Example 82]: the IC50 in assay [1] was above 10000 nM; in assay [2] it was below 300 nM.
For the compound `Cc1cn(-c2ccc3c(c2)CCNC3=O)nc1Nc1ccc2[nH]ncc2c1Cl` [Example 83, 6-(3-((4-chloro-1H-indazol-5-yl)amino)-4-methyl-1H-pyrazol-1-yl)-3,4-dihydroisoquinolin-1(2H)-one], the IC50 in assay [1] and in assay [2] was below 300 nM throughout.
Consider `Cc1cn(-c2ccc3c(c2)CCN(CC(C)C)C3=O)nc1Nc1ccc2[nH]ncc2c1Cl` [Example 84, 6-[3-[(4-chloro-1H-indazol-5-yl)amino]-4-methyl-pyrazol-1-yl]-2-isobutyl-3,4-dihydroisoquinolin-1-one], for which the values for the IC50 in assay [1] and in assay [2] were 3000 to 10000 nM and below 300 nM, respectively.
